Blank lines part the entries; values can stand above or below the molecule they belong to. Active and inactive are the calls of the source. The rule behind the calls is not given here.
Columns and labels:
PC-3 = assay: Growth inhibition of human PC3 cells after 48 hrs by Sulforhodamine B assay; assay type: functional; conditions: PC-3, 48 h
DU-145 = assay: Growth inhibition of human DU145 cells after 48 hrs by Sulforhodamine B assay; assay type: functional; conditions: DU-145, 48 h
MKN-74 = assay: Growth inhibition of human MKN74 cells after 48 hrs by Sulforhodamine B assay; assay type: functional; conditions: MKN-74, 48 h
MKN-7 = assay: Growth inhibition of human MKN7 cells after 48 hrs by Sulforhodamine B assay; assay type: functional; conditions: MKN-7, 48 h
MKN-28 = assay: Growth inhibition of human MKN28 cells after 48 hrs by Sulforhodamine B assay; assay type: functional; conditions: MKN-28, 48 h
St-4 = assay: Growth inhibition of human St-4 cells after 48 hrs by Sulforhodamine B assay; assay type: functional; conditions: St-4, 48 h
[1] = Growth inhibition of human RXF631L cells after 48 hrs by Sulforhodamine B assay; assay type: functional; conditions: RXF 631, 48 h
ACHN = assay: Growth inhibition of human ACHN cells after 48 hrs by Sulforhodamine B assay; assay type: functional
SK-OV-3 = assay: Growth inhibition of human SKOV3 cells after 48 hrs by Sulforhodamine B assay; assay type: functional; conditions: SK-OV-3, 48 h
OVCAR-3 = assay: Growth inhibition of human OVCAR3 cells after 48 hrs by Sulforhodamine B assay; assay type: functional; conditions: OVCAR-3, 48 h
OVCAR-5 = assay: Growth inhibition of human OVCAR5 cells after 48 hrs by Sulforhodamine B assay; assay type: functional; conditions: OVCAR-5, 48 h
LOX IMVI = assay: Growth inhibition of human LOXIMVI cells after 48 hrs by Sulforhodamine B assay; assay type: functional
DMS-114 = assay: Growth inhibition of human DMS114 cells after 48 hrs by Sulforhodamine B assay; assay type: functional; conditions: DMS-114, 48 h
A549 = assay: Growth inhibition of human A549 cells after 48 hrs by Sulforhodamine B assay; assay type: functional; conditions: A549, 48 h
DMS-273 = assay: Growth inhibition of human DMS273 cells after 48 hrs by Sulforhodamine B assay; assay type: functional; conditions: DMS-273, 48 h
NCI-H460 = assay: Growth inhibition of human NCI-H460 cells after 48 hrs by Sulforhodamine B assay; assay type: functional; conditions: NCI-H460, 48 h
NCI-H522 = assay: Growth inhibition of human NCI-H522 cells after 48 hrs by Sulforhodamine B assay; assay type: functional; conditions: NCI-H522, 48 h
NCI-H23 = assay: Growth inhibition of human NCI-H23 cells after 48 hrs by Sulforhodamine B assay; assay type: functional; conditions: NCI-H23, 48 h
HCT-116 = assay: Growth inhibition of human HCT116 cells after 48 hrs by Sulforhodamine B assay; assay type: functional; conditions: HCT-116, 48 h
HCT-15 = assay: Growth inhibition of human HCT15 cells after 48 hrs by Sulforhodamine B assay; assay type: functional; conditions: HCT-15, 48 h
SNB-78 = assay: Growth inhibition of human SNB-78 cells after 48 hrs by Sulforhodamine B assay; assay type: functional; conditions: SNB-78, 48 h
[2] = Growth inhibition of human HCC2998 cells after 48 hrs by Sulforhodamine B assay; assay type: functional; conditions: HCC 2998, 48 h
SF-539 = assay: Growth inhibition of human SF539 cells after 48 hrs by Sulforhodamine B assay; assay type: functional; conditions: SF-539, 48 h
SF-295 = assay: Growth inhibition of human SF295 cells after 48 hrs by Sulforhodamine B assay; assay type: functional; conditions: SF-295, 48 h
U-251 = assay: Growth inhibition of human U251 cells after 48 hrs by Sulforhodamine B assay; assay type: functional; conditions: U-251, 48 h
SF-268 = assay: Growth inhibition of human SF268 cells after 48 hrs by Sulforhodamine B assay; assay type: functional; conditions: SF-268, 48 h
MCF7 = assay: Growth inhibition of human MCF7 cells after 48 hrs by Sulforhodamine B assay; assay type: functional; conditions: MCF7, 48 h
[3] = Growth inhibition of human HBC5 cells after 48 hrs by Sulforhodamine B assay; assay type: functional; conditions: HBC5, 48 h
[4] = Growth inhibition of human HBC4 cells after 48 hrs by Sulforhodamine B assay; assay type: functional; conditions: read-out: logGI50 (converted)
MKN-45 = assay: Growth inhibition of human MKN45 cells after 48 hrs by Sulforhodamine B assay; assay type: functional; conditions: MKN-45, 48 h
[5] = Growth inhibition of human MKN1 cells after 48 hrs by Sulforhodamine B assay; assay type: functional; conditions: MKN-1, 48 h
OVCAR-4 = assay: Growth inhibition of human OVCAR4 cells after 48 hrs by Sulforhodamine B assay; assay type: functional; conditions: OVCAR-4, 48 h
OVCAR-8 = assay: Growth inhibition of human OVCAR8 cells after 48 hrs by Sulforhodamine B assay; assay type: functional; conditions: OVCAR-8, 48 h
NCI-H226 = assay: Growth inhibition of human NCI-H226 cells after 48 hrs by Sulforhodamine B assay; assay type: functional; conditions: NCI-H226, 48 h
KM12 = assay: Growth inhibition of human KM12 cells after 48 hrs by Sulforhodamine B assay; assay type: functional; conditions: KM12, 48 h
HT-29 = assay: Growth inhibition of human HT-29 cells after 48 hrs by Sulforhodamine B assay; assay type: functional; conditions: HT-29, 48 h
SNB-75 = assay: Growth inhibition of human SNB75 cells after 48 hrs by Sulforhodamine B assay; assay type: functional; conditions: SNB-75, 48 h
MDA-MB-231 = assay: Growth inhibition of human MDA-MB-231 cells after 48 hrs by Sulforhodamine B assay; assay type: functional; conditions: MDA-MB-231, 48 h
[6] = Growth inhibition of human BSY1 cells after 48 hrs by Sulforhodamine B assay; assay type: functional; conditions: BSY-1, 48 h
HBC4 = assay: Induction of golgi disassembly in human HBC4 cells assessed as presence of GBF1 in cytoplasm at 1 to 100 nM after 1 hr by immunofluorescence microscopy; assay type: functional, cell-based
BSY-1 = assay: Induction of golgi disassembly in human BSY1 cells assessed as presence of GBF1 in cytoplasm at 1 to 100 nM after 1 hr by immunofluorescence microscopy; assay type: functional, cell-based

- GI50 (PC-3; read-out: logGI50 (converted)): 45.7 nM
- GI50 (DU-145; read-out: logGI50 (converted)): 245 nM
- GI50 (MKN-74; read-out: logGI50 (converted)): 56.2 nM
- GI50 (MKN-7; read-out: logGI50 (converted)): 50.1 nM
- GI50 (MKN-28; read-out: logGI50 (converted)): 79.4 nM
- GI50 (ACHN; read-out: logGI50 (converted)): 47.9 nM
- GI50 (SK-OV-3; read-out: logGI50 (converted)): 41.7 nM
- GI50 (OVCAR-3; read-out: logGI50 (converted)): 33.1 nM
- GI50 (OVCAR-5; read-out: logGI50 (converted)): 38.9 nM
- GI50 (A549; read-out: logGI50 (converted)): 57.5 nM
- GI50 (NCI-H460; read-out: logGI50 (converted)): 91.2 nM
- GI50 (NCI-H522; read-out: logGI50 (converted)): 123 nM
- GI50 (NCI-H23; read-out: logGI50 (converted)): 53.7 nM
- GI50 (HCT-116; read-out: logGI50 (converted)): 40.7 nM
- GI50 (HCT-15; read-out: logGI50 (converted)): 70.8 nM
- GI50 (U-251; read-out: logGI50 (converted)): 58.9 nM
- GI50 (MCF7; read-out: logGI50 (converted)): 42.7 nM
- GI50 (MKN-45; read-out: logGI50 (converted)): 31.6 nM
- GI50 (OVCAR-4; read-out: logGI50 (converted)): 31.6 nM
- GI50 (OVCAR-8; read-out: logGI50 (converted)): 39.8 nM
- GI50 (NCI-H226; read-out: logGI50 (converted)): 23.4 nM
- GI50 (HT-29; read-out: logGI50 (converted)): 33.9 nM
- GI50 (MDA-MB-231; read-out: logGI50 (converted)): 24 nM
Compound: C/C(=C\C=C\[C@@H]1[C@H]2[C@H](C)[C@@H](O)[C@H](C)C[C@@H]2C=C[C@@H]1C)C(=O)NCc1cccnc1 (stereo in doubt; form 1)
- GI50 (St-4; read-out: logGI50 (converted)): 195 nM
- GI50 ([1]; read-out: logGI50 (converted)): 53.7 nM
- GI50 (LOX IMVI; read-out: logGI50 (converted)): 22.9 nM
- GI50 (DMS-114; read-out: logGI50 (converted)): 39.8 nM
- GI50 (DMS-273; read-out: logGI50 (converted)): 53.7 nM
- GI50 (SNB-78; read-out: logGI50 (converted)): 51.3 nM
- GI50 ([2]; read-out: logGI50 (converted)): 39.8 nM
- GI50 (SF-539; read-out: logGI50 (converted)): 52.5 nM
- GI50 (SF-295; read-out: logGI50 (converted)): 58.9 nM
- GI50 (SF-268; read-out: logGI50 (converted)): 44.7 nM
- GI50 ([3]; read-out: logGI50 (converted)): 34.7 nM
- GI50 [4]: 41.7 nM
- GI50 ([5]; read-out: logGI50 (converted)): 30.2 nM
- GI50 (KM12; read-out: logGI50 (converted)): 35.5 nM
- GI50 (SNB-75; read-out: logGI50 (converted)): 23.4 nM
- GI50 ([6]; read-out: logGI50 (converted)): 12.6 nM

- GI50 (PC-3; read-out: pGI50 (converted)): 46.8 nM
- GI50 (DU-145; read-out: pGI50 (converted)): 219 nM
- GI50 (MKN-74; read-out: pGI50 (converted)): 81.3 nM
- GI50 (MKN-7; read-out: pGI50 (converted)): 66.1 nM
- GI50 (MKN-28; read-out: pGI50 (converted)): 83.2 nM
- GI50 (ACHN; read-out: pGI50 (converted)): 81.3 nM
- GI50 (SK-OV-3; read-out: pGI50 (converted)): 44.7 nM
- GI50 (OVCAR-3; read-out: pGI50 (converted)): 46.8 nM
- GI50 (OVCAR-5; read-out: pGI50 (converted)): 41.7 nM
- GI50 (A549; read-out: pGI50 (converted)): 51.3 nM
- GI50 (NCI-H460; read-out: pGI50 (converted)): 174 nM
- GI50 (NCI-H522; read-out: pGI50 (converted)): 191 nM
- GI50 (NCI-H23; read-out: pGI50 (converted)): 60.3 nM
- GI50 (HCT-116; read-out: pGI50 (converted)): 74.1 nM
- GI50 (HCT-15; read-out: pGI50 (converted)): 126 nM
- GI50 (U-251; read-out: pGI50 (converted)): 70.8 nM
- GI50 (MCF7; read-out: pGI50 (converted)): 47.9 nM
- GI50 (MKN-45; read-out: GI50): 27.5 nM
- GI50 (MKN-45; read-out: pGI50 (converted)): 27.5 nM
- GI50 (OVCAR-4; read-out: GI50): 34.7 nM
- GI50 (OVCAR-4; read-out: pGI50 (converted)): 34.7 nM
- GI50 (OVCAR-8; read-out: GI50): 37.2 nM
- GI50 (OVCAR-8; read-out: pGI50 (converted)): 37.1 nM
- GI50 (NCI-H226; read-out: GI50): 30.9 nM
- GI50 (NCI-H226; read-out: pGI50 (converted)): 30.9 nM
- GI50 (HT-29; read-out: GI50): 33.9 nM
- GI50 (HT-29; read-out: pGI50 (converted)): 33.9 nM
- GI50 (MDA-MB-231; read-out: GI50): 22.9 nM
- GI50 (MDA-MB-231; read-out: pGI50 (converted)): 22.9 nM
Compound: C/C(=C\C=C\[C@@H]1[C@H]2[C@H](C)[C@@H](O)[C@H](C)C[C@@H]2C=C[C@@H]1C)C(=O)NCc1cccnc1 (stereo in doubt; form 2) [listing 1 of 2 here]
- GI50 (St-4; read-out: pGI50 (converted)): 214 nM
- GI50 ([1]; read-out: pGI50 (converted)): 112 nM
- GI50 (LOX IMVI; read-out: GI50): 33.1 nM
- GI50 (LOX IMVI; read-out: pGI50 (converted)): 33.1 nM
- GI50 (DMS-114; read-out: pGI50 (converted)): 52.5 nM
- GI50 (DMS-273; read-out: pGI50 (converted)): 79.4 nM
- GI50 (SNB-78; read-out: pGI50 (converted)): 58.9 nM
- GI50 ([2]; read-out: pGI50 (converted)): 47.9 nM
- GI50 (SF-539; read-out: pGI50 (converted)): 58.9 nM
- GI50 (SF-295; read-out: pGI50 (converted)): 100 nM
- GI50 (SF-268; read-out: pGI50 (converted)): 51.3 nM
- GI50 ([3]; read-out: pGI50 (converted)): 41.7 nM
- GI50 ([4]; Homo sapiens, HBC4, 48 h): 46.8 nM
- GI50 ([5]; read-out: GI50): 36.3 nM
- GI50 ([5]; read-out: pGI50 (converted)): 36.3 nM
- GI50 (KM12; read-out: GI50): 35.5 nM
- GI50 (KM12; read-out: pGI50 (converted)): 35.5 nM
- GI50 (SNB-75; read-out: GI50): 30.2 nM
- GI50 (SNB-75; read-out: pGI50 (converted)): 30.2 nM
- GI50 ([6]; read-out: GI50): 18.2 nM
- GI50 ([6]; read-out: pGI50 (converted)): 18.2 nM

Compound: C/C(=C\C=C\[C@@H]1[C@H]2[C@H](C)[C@@H](O)[C@H](C)C[C@@H]2C=C[C@@H]1C)C(=O)NCc1cccnc1 (stereo in doubt; form 2) [listing 2 of 2 here]
- Activity (HBC4): Active
- Activity (BSY-1): Active

From ChEMBL document CHEMBL2311520, “Total synthesis of AMF-26, an antitumor agent for inhibition of the Golgi system, targeting ADP-ribosylation factor 1” (J Med Chem, 2013)
